Structures are written as SMILES. ≈ marks a conversion by molar mass, not a printed value. Bridge positions count the residues as written; N and C are the ends. Peptide text beside a SMILES is read from it. Bounds are passed on as bounds.

The source of these data is article PMC9283466, “In silico identification of two peptides with antibacterial activity against multidrug-resistant Staphylococcus aureus” (NPJ Biofilms and Microbiomes, 2022).

The subject of test [1] is MRSA USA300 biofilms. In words: Anti-biofilm activity, 96-well biofilm model (crystal violet). Format: cell-based, Staphylococcus aureus. Particulars: established MRSA USA300 biofilms; for reduction in biofilm formation: sub-MIC (0.25x and 0.5 x MIC) and MIC concentrations; for biofilm reduction: supra-MIC concentrations (2x and 4x MIC). How it is done: The ability of HG2 and HG4 to disrupt established S. aureus biofilms was measured using a 96-well format as described by ref. [14]. MRSA USA300 cultures grown overnight in Brain Heart Infusion (BHI) broth was resuspended to OD600nm = 0.02 and grown without aeration at 37 °C in 96-well tissue culture plates for an additional 24 h. The planktonic cells were removed by three PBS (phosphate-buffered saline) washes. Thereafter, fresh BHI broth containing peptides HG2 or HG4 at sub- and supra-MIC concentrations (0.5, 1, 2 and 4x MIC) was added to wells containing adherent cells and incubated without shaking for another 24 h. Planktonic cells were again removed by three PBS washes. Biofilms were fixed with methanol for 20 min, stained with 0.4% (w/v) crystal violet solution for 20 min and re-solubilised with 33% (v/v) acetic acid. The optical density of re-solubilised biofilms was measured at 570 nm in a microplate spectrophotometer. The percentage biofilm reduction was calculated using the equation below: Percentagebiofilmreduction(%)=PositiveControl−ODofSample/PositiveControl−NegativeControl The plot showing anti-biofilm activity (% biofilm reduction) was generated using the ‘ggplot2’ package[53] in R (v 4.1.1)[54] with log-linear regression performed using lm() function.

Test [2] in a line: Pure lipid preference order from critical pressure of insertion. Particulars: pure bacterial and eukaryotic lipids. Type of test: binding. How it is done:
Peptide–lipid interaction was measured using a lipid monolayer formed at the air:water interface with total lipid extracts and pure lipids. Total lipids were extracted from overnight cultures of MRSA or human erythrocytes using the Folch extraction procedure[14],[40]. Extracted total lipids were dried, re-solubilised in chloroform:methanol (2:1, v/v) and stored at −20 °C under nitrogen. […] The variation of the surface pressure caused by peptide insertion was then continuously monitored using a fully automated microtensiometer (µTROUGH SX, Kibron Inc, Finland) until it reached equilibrium (maximal surface pressure increase is usually obtained after 15–25 min). […] In other experiments, the critical pressure of insertion of HG2 or HG4 in the total lipid extracts and pure lipids was measured as follows[14],[56]. Briefly, in these experiments, the initial pressure of the lipid monolayer was set up at different values (between 10 and 30 mN/m) and the variation of pressure caused by the injection of the peptide was measured. […] All experiments were carried out in a controlled atmosphere at 20 ± 1 °C and data were analyzed using the Firmware 2.5 programme (Kibron Inc.). The accuracy of the system under our experimental conditions was determined to be ±0.25 mN/m for surface pressure measurements.

The subject of test [3] is MRSA USA300 cells. Briefly: Transmission electron microscopy. Type of test: cell-based, Staphylococcus aureus. As to conditions: 3x MICs for 60 min. An excerpt:
Transmission electron microscopy[14] was used to investigate the effects of HG2 and HG4 on MRSA USA300 cell morphology. […] They were then stained with 2% (w/v) uranyl acetate and Reynold’s lead citrate after which they were observed using a JEM1010 transmission electron microscope (JEOL Ltd, Tokyo, Japan) at 80 kV.

Test [4] deals with BEAS-2B (normal airway epithelial cells). In words: Cytotoxicity, resazurin cell viability. Format: cell-based, human. As to conditions: 48 h. The protocol:
(§1) The toxicity of HG2 and HG4 was tested by a well-known method[60] using the following cell types: BEAS-2B (normal airway epithelial cells, ATCC CRL-9609), IMR-90 (normal fibroblasts, ATCC CCL-186) and HepG2 (liver cell line, ATCC HB-8065). BEAS-2B, IMR-90 and HepG2 cells were cultured in Dulbecco’s modified essential medium (DMEM) supplemented with 10% fetal calf serum (FCS), 1% L-glutamine and 1% antibiotics (all from Invitrogen). Cells were routinely grown onto 25 cm^2 flasks maintained in a 5% CO2 incubator at 37 °C. Briefly, cells grown on 25 cm^2 flasks were detached using trypsin-EDTA solution (Thermofisher) and seeded into 96-well cell culture plates (Greiner Bio-one) at ~10^4 cells per well (counted using Mallasez’s chamber). The cells were grown at 37 °C in a 5% CO2 incubator until they reached confluence (~48–72 h of seeding). Wells were then aspirated and increasing concentrations of HG2 or HG4 were added to the cells and incubated for a further 48 h at 37 °C in a 5% CO2 incubator. The wells were then emptied, and cell viability was evaluated using a resazurin based in vitro toxicity assay kit (Sigma-Aldrich) following the manufacturer’s instructions. Briefly, the resazurin stock solution was diluted at 1:100 in sterile PBS containing calcium and magnesium (PBS^++, pH 7.4) and emptied wells were filled with 100 µl of the diluted resazurin solution. After 4 h incubation at 37 °C with the peptide-treated cells, fluorescence intensity was measured using a microplate reader (excitation wavelength of 530 nm/emission wavelength of 590 nm). The fluorescence values were normalised by the controls and expressed as the percentage of cell viability. The IC50 values of HG2 or HG4 on cell viability (i.e. the concentration of peptides causing a reduction of 50% of the cell viability) were calculated using GraphPad® Prism 7 software.
For orientation: The colour change of resazurin is a common sign of viable cells or microbes.

The test system of test [5] is HepG2 (liver cell line). Briefly: Cytotoxicity, resazurin cell viability. Particulars: 48 h. Type of test: cell-based, human. The protocol: as §1
The test system of test [6] is IMR-90 (normal fibroblasts). In words: Cytotoxicity, resazurin cell viability. Type of test: cell-based, human. As to conditions: 48 h. How it is done: as §1
Test [7] can be described thus: Peptide-lipid interaction and insertion, lipid monolayer. Format: binding, S. aureus. Particulars: LTA; for Speed of insertion: initial surface pressure 30+/-0.5 mN/m; for Critical pressure of insertion πc: peptide 1 µg/mL. The protocol:
Peptide–lipid interaction was measured using a lipid monolayer formed at the air:water interface with total lipid extracts and pure lipids. Total lipids were extracted from overnight cultures of MRSA or human erythrocytes using the Folch extraction procedure[14],[40]. Extracted total lipids were dried, re-solubilised in chloroform:methanol (2:1, v/v) and stored at −20 °C under nitrogen. Pure prokaryotic and eukaryotic lipids used were: cardiolipin, POPC (1-palmitoyl-2-oleoyl-glycero-3-phosphocholine), POPE (1-palmitoyl-2-oleoyl-sn-glycero-3-phosphoethanolamine) and POPG (1-palmitoyl-2-oleoyl-sn-glycero-3-phospho-(1’-rac-glycerol) (Avanti Polar Lipid). LTA (Lipoteichoic acid from S. aureus) and LPS (lipopolysaccharide from E. coli) (Invitrogen, UK) were also tested. Pure lipids were reconstituted in chloroform:methanol (2:1 v/v) at 1 mg/ml and stored at −20 °C under nitrogen. For peptide–lipid interaction assay, lipid monolayers at the air:water interface were formed by spreading total lipid extract or pure lipids at the surface of 800 µl of sterile PBS using a 50 µl Hamilton’s syringe. Lipids were added until the surface pressure reached the desired value. After 5–10 min of incubation allowing the evaporation of the solvent and stabilisation of the initial surface pressure, 8 µl of HG2 or HG4 diluted in sterile PBS at 100 µg/ml were injected into the 800 µl sub-phase of PBS under the lipid monolayer (pH 7.4, volume 800 µl) using a 10 µl Hamilton’s syringe giving a final concentration of peptide of 1 µg/ml, as preliminary experiments had shown that this concentration was optimal. The variation of the surface pressure caused by peptide insertion was then continuously monitored using a fully automated microtensiometer (µTROUGH SX, Kibron Inc, Finland) until it reached equilibrium (maximal surface pressure increase is usually obtained after 15–25 min). To reflect physiological situations, the initial surface pressure was fixed at 30 ± 0.5 mN/m in some experiments as this value corresponds to a lipid packing density theoretically equivalent to that of the outer leaflet of the eukaryotic and prokaryotic cell membrane. In other experiments, the critical pressure of insertion of HG2 or HG4 in the total lipid extracts and pure lipids was measured as follows[14],[56]. Briefly, in these experiments, the initial pressure of the lipid monolayer was set up at different values (between 10 and 30 mN/m) and the variation of pressure caused by the injection of the peptide was measured. […] All experiments were carried out in a controlled atmosphere at 20 ± 1 °C and data were analyzed using the Firmware 2.5 programme (Kibron Inc.). The accuracy of the system under our experimental conditions was determined to be ±0.25 mN/m for surface pressure measurements.

For the molecule `CC[C@H](C)[C@H](NC(=O)[C@H](CC(C)C)NC(=O)[C@H](CC(C)C)NC(=O)[C@H](C)NC(=O)CNC(=O)CNC(=O)[C@@H](NC(=O)[C@@H](NC(=O)[C@H](CC(C)C)NC(=O)[C@H](C)NC(=O)[C@H](CC(C)C)NC(=O)CNC(=O)[C@H](CC(C)C)NC(=O)[C@@H](N)C(C)C)[C@@H](C)CC)C(C)C)C(=O)N[C@@H](CCCCN)C(=O)N[C@@H](CCCCN)C(=O)N[C@@H](CCCCN)C(=O)N[C@@H](CCC(N)=O)C(=O)N[C@@H](C)C(=O)N[C@@H](CCCCN)C(=O)N[C@@H](CO)C(N)=O` [HG4] (H-VLGLALIVGGALLIKKKQAKS-NH2; N-terminus and C-terminus assumed), in test [1], the “reduction in biofilm formation” value is recorded as “less than 50%” and the biofilm reduction is reported as not below 50%. Also, the “order of preference for pure lipids (critical pressure of insertion)” value in test [2] is “PG > cardiolipin > LTA > LPS > PE > PC”. Moreover, the “cell morphology by TEM” value in test [3] is “changes in cell morphology and some cytoplasmic damage”. In addition, the “IC50 (cell viability)” value in test [4] is more than 1000 µg/mL. For the same molecule, the “IC50 (cell viability)” value in test [5] is more than 1000 µg/mL. Besides, the “IC50 (cell viability)” value in test [6] was 294 ± 42 µg/mL (≈ 139 µM). Moreover, in test [7], the Speed of insertion is 0.39 mN/m/10 sec and the “Critical pressure of insertion πc” value is on record as 40.04 mN/m.
For `CC[C@H](C)[C@H](NC(=O)[C@H](CC(C)C)NC(=O)[C@H](CC(C)C)NC(=O)[C@H](CC(C)C)NC(=O)[C@H](CCCCN)NC(=O)[C@H](CCCCN)NC(=O)[C@@H](N)CCSC)C(=O)N[C@@H](CC(C)C)C(=O)N[C@@H](Cc1ccccc1)C(=O)N[C@H]1CSSC[C@@H](C(=O)N[C@@H](CCCCN)C(=O)N[C@@H](CCCCN)C(=O)N[C@@H](C)C(=O)N2CCC[C@H]2C(N)=O)NC(=O)CNC(=O)[C@H](C)NC(=O)[C@H](CC(C)C)NC(=O)[C@H](C)NC(=O)[C@H](CC(C)C)NC(=O)[C@H](C)NC(=O)[C@H](CC(C)C)NC1=O` [HG2] (H-MKKLLLILFCLALALAGCKKAP-NH2; disulfide 10-18; N-terminus assumed), in test [1], the “reduction in biofilm formation” value is recorded as “less than 50%” and the biofilm reduction is reported as not below 50%. Moreover, the “order of preference for pure lipids (critical pressure of insertion)” value in test [2] was “PC > PG > LTA > Cardio > PE > LPS”. The “cell morphology by TEM” value in test [3] is “changes in cell morphology and some cytoplasmic damage”. Further, in test [4], the “IC50 (cell viability)” value turned out to be 120 ± 25 µg/mL (≈ 50.9 µM). Further, the “IC50 (cell viability)” value in test [5] came out at 359 ± 76 µg/mL (≈ 152 µM). For the same molecule, the “IC50 (cell viability)” value in test [6] was 96 ± 21 µg/mL (≈ 40.7 µM). Besides, in test [7], the Speed of insertion came out at 0.80 mN/m/10 sec and the “Critical pressure of insertion πc” value is on record as 47.81 mN/m.
